Publication PMC5993337, “De novo biosynthesis of sterols and fatty acids in the Trypanosoma brucei procyclic form: Carbon source preferences and metabolic flux redistributions” (PLoS Pathogens, 2018)

Target: T1, IVDH (isovaleryl-CoA dehydrogenase), his-tagged recombinant T. brucei IVDH (Trypanosoma brucei, UniProt Q387A0)
T1 construct: gene Tb11.55.0026; lacks N-terminal 13 residues (gene positions 41 to 1234 bp), 6 His codons at 3' end, pET28, E. coli BL21(DE3) with GroEL-ES
T1 sequence (Q387A0 14-411): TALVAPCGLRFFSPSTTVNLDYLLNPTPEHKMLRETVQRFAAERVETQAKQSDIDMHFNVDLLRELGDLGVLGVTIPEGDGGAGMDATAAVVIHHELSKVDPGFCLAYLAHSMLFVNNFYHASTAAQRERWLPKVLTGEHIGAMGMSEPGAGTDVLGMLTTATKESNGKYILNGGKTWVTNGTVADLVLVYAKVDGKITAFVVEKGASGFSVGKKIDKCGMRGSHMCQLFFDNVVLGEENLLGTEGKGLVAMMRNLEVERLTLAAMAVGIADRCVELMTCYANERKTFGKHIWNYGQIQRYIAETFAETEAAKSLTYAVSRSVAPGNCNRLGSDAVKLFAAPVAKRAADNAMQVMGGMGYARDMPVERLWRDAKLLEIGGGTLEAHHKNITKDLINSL
Experiment: spectrophotometric dye-reduction assay ([…],6-dichloroindophenol, […] nm)
Assay type: biochemical
Conditions: isovaleryl-CoA 52.5 uM, phenazine methosulfate 1.5 mM, FAD 10 uM, 100 mM KPi pH 7.0, 25 °C

CC(C)CC(=O)SCCNC(=O)CCNC(=O)[C@H](O)C(C)(C)COP(=O)(O)OP(=O)(O)OC[C@H]1O[C@@H](n2cnc3c(N)ncnc32)[C@H](O)[C@@H]1OP(=O)(O)O [isovaleryl-CoA]
spectrophotometric dye-reduction assay (2,6-dichloroindophenol, 600 nm): specific activity of the his-tagged recombinant T. brucei IVDH purified to homogeneity for its substrate
